Assay results from US10800791B2, “Triazole ACC inhibitors and uses thereof” (Gilead Apollo, LLC, priority 2015, dated 2020).
Values after ≈ are worked out from the molar mass of the structure shown. Where two headings read alike, the source gives them in different places.

Legend:
ACC2 = ACC2 isolated from rat, mouse, monkey and human; cited from earlier work
ACC1 = ACC1 isolated from rat, mouse, monkey and human; cited from earlier work
Botrtyis cinerea (Bc) = assay: Growth inhibition assay of fungal pathogens, Bc; format: cell-based; details: 48 h, growth inhibition at 48 hours vs 2% DMSO control
Method in brief: (§1)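 Spores from sub-cultured plates were diluted in 17% V8 liquid medium and exposed to compound from DMSO stocks at final concentrations of 50, 10 and 2 ppm or 2, 0.4 and 0.08 ppm. OD600 and visual ratings at 48 h were compared with the 2% DMSO control to give percent growth inhibition.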

C. krusei = assay: Antifungal Activity Assay (broth microtiter MIC), C. krusei; format: cell-based, Candida krusei; details: Pichia kudriavzevii, ATCC6258, 48 h
Method in brief: (§2)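 MICs were scored by eye at 48 h relative to the growth control. Plates followed CLSI M27-A3, with Candida suspensions in RPMI 1640+MOPS giving a final 2.5×10^3 CFU/mL; the colonies came from Sabouraud agar grown overnight at 35 °C.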

[1] = system: Fusarium virguliforme (Fv); assay: Growth inhibition assay of fungal pathogens, Fv; format: cell-based; details: 48 h
Method in brief: as §1

C. albicans = assay: Antifungal Activity Assay (broth microtiter MIC), C. albicans; format: cell-based, Candida albicans; details: Candida albicans, ATCC90028, 48 h
Method in brief: as §2

[2] = system: Phytophthora capsici (Pc); assay: Growth inhibition assay of fungal pathogens, Pc; format: cell-based; details: 48 h
Method in brief: as §1

[3] = system: Collectotrichum graminicola (Cg); assay: Growth inhibition assay of fungal pathogens, Cg; format: cell-based; details: 48 h, growth inhibition at 48 hours vs 2% DMSO control
Method in brief: as §1

C. parapsilosis = assay: Antifungal Activity Assay (broth microtiter MIC), C. parapsilosis; format: cell-based, Candida parapsilosis; details: Lodderomyces parapsilosis, ATCC22019, 48 h
Method in brief: as §2

[4] = system: Fusarium moniliforme (Fm); assay: Growth inhibition assay of fungal pathogens, Fm; format: cell-based; details: Fusarium verticillioides, 48 h, read-out: Concentration at 90% Inhibition Fm
Method in brief: as §1

fungal (fACC2) = fungal (fACC2) (UniProt Q00955); details: read-out: fACC2 (in vitro ACC2 Inhibition Assay, IC50); Table 2b, additional results; ADP-Glo, 5 nM ACC2, 20 μM ATP, 20 μM acetyl-CoA
Chain of fungal (fACC2) (Q00955 whole entry): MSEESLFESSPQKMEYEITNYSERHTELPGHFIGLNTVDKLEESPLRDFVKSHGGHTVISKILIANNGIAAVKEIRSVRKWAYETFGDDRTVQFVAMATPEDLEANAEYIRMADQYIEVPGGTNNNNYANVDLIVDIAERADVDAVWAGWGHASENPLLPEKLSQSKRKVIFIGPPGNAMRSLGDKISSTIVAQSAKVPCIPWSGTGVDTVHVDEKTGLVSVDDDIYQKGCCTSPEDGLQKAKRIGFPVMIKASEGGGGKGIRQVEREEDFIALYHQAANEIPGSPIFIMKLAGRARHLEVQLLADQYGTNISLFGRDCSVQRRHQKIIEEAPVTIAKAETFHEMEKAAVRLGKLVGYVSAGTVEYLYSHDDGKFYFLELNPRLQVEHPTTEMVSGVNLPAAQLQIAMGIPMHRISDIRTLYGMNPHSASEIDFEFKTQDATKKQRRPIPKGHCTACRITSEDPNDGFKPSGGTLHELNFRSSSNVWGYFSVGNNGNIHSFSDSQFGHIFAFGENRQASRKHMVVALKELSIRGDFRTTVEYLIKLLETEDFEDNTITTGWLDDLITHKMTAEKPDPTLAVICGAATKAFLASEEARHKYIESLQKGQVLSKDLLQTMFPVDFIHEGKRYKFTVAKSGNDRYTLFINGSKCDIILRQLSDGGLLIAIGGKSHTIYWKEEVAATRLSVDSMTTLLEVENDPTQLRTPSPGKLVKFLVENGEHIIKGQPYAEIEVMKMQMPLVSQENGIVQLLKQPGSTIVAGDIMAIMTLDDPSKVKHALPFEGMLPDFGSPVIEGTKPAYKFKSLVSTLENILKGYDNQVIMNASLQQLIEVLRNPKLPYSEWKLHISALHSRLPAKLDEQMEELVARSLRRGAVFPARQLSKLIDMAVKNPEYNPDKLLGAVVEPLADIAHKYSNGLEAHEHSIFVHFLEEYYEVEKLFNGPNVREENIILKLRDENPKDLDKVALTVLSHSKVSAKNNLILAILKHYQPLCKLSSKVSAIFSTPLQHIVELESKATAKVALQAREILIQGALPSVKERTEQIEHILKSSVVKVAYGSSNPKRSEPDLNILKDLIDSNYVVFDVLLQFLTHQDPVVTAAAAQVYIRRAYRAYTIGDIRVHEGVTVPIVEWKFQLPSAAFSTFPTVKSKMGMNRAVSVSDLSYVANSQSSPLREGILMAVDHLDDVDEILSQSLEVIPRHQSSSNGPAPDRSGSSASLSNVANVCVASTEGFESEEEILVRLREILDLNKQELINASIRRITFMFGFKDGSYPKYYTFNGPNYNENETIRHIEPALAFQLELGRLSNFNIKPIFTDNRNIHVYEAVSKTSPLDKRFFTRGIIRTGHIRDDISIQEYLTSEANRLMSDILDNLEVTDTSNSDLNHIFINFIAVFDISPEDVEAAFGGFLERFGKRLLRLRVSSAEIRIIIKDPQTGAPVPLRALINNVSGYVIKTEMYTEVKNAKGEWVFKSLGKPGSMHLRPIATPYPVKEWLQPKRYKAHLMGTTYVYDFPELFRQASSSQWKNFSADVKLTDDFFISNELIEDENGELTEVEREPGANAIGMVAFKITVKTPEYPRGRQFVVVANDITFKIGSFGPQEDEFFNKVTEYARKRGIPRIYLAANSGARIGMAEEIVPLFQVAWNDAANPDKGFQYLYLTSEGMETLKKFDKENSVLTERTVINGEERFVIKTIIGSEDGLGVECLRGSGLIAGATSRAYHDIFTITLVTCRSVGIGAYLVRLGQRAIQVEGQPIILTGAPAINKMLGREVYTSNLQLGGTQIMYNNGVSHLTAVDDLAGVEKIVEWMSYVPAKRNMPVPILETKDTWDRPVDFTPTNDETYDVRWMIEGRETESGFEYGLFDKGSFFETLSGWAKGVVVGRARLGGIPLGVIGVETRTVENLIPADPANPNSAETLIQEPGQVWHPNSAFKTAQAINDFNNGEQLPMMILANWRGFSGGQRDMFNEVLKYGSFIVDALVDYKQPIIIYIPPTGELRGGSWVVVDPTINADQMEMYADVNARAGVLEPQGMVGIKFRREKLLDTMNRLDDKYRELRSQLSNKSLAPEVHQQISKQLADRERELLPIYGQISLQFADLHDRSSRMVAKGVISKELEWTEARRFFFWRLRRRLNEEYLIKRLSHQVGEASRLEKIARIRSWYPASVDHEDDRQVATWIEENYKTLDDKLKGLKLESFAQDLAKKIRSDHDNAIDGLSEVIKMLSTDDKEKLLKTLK

Septoria tritici (St) = assay: Growth inhibition assay of fungal pathogens, St; format: cell-based; details: Zymoseptoria tritici, 48 h, growth inhibition at 48 hours vs 2% DMSO control
Method in brief: as §1

Rhizoctonia solani (Rs) = assay: Growth inhibition assay of fungal pathogens, Rs; format: cell-based; details: 48 h
Diplodia maydis (Dm) = assay: Growth inhibition assay of fungal pathogens, Dm; format: cell-based; details: Stenocarpella maydis, 48 h, growth inhibition at 48 hours vs 2% DMSO control
Method in brief: as §1

human (hACC2) = human (hACC2) (Homo sapiens, UniProt O00763); assay: In vitro ACC inhibition assay (ADP-Glo), hACC2; format: biochemical; details: Table 2b, additional results, 5 nM ACC2, 20 μM ATP, 20 μM acetyl-CoA
Chain of human (hACC2) (O00763 whole entry): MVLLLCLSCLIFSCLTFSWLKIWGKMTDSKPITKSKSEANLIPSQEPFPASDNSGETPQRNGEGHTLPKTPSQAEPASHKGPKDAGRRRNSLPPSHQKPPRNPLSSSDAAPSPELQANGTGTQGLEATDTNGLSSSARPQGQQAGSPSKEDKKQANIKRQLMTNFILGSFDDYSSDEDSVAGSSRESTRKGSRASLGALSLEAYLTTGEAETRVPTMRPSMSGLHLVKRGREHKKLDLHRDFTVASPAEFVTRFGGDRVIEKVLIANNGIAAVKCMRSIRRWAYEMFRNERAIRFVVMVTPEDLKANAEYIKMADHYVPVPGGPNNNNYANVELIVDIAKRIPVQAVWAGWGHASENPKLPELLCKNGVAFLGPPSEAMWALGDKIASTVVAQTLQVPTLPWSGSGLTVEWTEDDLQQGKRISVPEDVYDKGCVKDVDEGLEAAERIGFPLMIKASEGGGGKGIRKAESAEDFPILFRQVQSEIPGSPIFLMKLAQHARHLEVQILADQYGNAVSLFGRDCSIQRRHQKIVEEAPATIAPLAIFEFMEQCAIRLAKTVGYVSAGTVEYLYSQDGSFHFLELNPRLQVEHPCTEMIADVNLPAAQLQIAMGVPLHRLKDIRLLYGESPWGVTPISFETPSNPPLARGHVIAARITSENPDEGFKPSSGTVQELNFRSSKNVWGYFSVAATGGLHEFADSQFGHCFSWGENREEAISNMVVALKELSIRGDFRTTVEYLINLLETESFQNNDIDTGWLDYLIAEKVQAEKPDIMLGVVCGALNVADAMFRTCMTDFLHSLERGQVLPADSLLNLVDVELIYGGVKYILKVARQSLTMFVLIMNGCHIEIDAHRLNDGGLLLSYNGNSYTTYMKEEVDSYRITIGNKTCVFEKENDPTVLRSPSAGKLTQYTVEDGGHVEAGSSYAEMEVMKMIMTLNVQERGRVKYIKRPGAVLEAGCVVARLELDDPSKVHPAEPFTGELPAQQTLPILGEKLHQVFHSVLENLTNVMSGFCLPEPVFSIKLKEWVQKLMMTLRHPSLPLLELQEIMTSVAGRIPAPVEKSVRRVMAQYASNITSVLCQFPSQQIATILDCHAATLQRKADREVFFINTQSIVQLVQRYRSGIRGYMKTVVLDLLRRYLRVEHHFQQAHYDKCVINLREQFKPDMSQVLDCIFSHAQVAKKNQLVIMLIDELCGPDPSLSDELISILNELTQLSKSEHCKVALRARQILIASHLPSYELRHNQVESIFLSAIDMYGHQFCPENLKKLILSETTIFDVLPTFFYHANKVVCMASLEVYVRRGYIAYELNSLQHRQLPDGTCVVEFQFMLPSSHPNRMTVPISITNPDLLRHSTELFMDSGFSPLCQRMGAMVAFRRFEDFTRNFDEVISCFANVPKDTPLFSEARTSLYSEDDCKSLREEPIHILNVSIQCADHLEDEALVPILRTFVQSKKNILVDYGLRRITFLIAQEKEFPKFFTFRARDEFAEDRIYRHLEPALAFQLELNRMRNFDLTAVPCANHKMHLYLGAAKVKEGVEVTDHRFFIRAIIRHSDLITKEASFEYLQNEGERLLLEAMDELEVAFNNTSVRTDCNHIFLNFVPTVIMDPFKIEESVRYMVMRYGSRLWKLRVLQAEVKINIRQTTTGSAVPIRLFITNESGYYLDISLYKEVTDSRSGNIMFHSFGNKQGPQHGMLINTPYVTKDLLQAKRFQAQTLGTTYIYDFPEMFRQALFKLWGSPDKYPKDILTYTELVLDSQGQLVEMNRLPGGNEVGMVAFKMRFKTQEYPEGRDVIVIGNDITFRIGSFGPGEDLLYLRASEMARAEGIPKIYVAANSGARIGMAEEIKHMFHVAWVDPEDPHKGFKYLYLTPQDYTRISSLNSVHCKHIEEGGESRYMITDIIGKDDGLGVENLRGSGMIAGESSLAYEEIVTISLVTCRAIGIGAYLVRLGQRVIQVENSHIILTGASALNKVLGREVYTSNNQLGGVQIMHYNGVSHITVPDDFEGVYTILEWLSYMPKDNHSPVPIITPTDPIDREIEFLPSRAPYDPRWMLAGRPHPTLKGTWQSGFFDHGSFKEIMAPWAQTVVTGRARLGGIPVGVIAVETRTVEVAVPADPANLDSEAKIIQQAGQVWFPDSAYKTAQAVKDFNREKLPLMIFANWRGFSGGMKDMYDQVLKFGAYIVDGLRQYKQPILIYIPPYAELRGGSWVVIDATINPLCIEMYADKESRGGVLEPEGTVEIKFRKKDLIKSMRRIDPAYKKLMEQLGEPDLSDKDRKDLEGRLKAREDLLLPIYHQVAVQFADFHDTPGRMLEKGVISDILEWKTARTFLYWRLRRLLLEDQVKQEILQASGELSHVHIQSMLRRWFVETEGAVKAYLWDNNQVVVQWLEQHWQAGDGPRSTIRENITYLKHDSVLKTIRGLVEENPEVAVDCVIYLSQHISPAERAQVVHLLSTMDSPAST
Method: The detailed procedure is as follows. […] 10 μL ADP glo reagent was added. […] 20 μL kinase detection reagent was added.

[5] = Botrtyis cinerea, read-out: Concentration at 90% Inhibition Bc
[6] = Table 3b (additional results), ATCC 6258, 3 replicates, MIC recorded at 48 h, read-out: MIC, C. krusei ATCC 6258
[7] = growth inhibition at 48 hours vs 2% DMSO control, read-out: Concentration at 90% Inhibition Fv
[8] = Table 3b (additional results), ATCC 90028, 3 replicates, MIC recorded at 48 h, read-out: MIC, C. albicans ATCC 90028
[9] = growth inhibition at 48 hours vs 2% DMSO control, read-out: Concentration at 90% Inhibition Pc
[10] = Collectotrichum graminicola, read-out: Concentration at 90% Inhibition Cg
[11] = Table 3b (additional results), ATCC 22019, 3 replicates, MIC recorded at 48 h, read-out: MIC, C. parapsilosis ATCC 22019
[12] = Fusarium moniliforme, growth inhibition at 48 hours vs 2% DMSO control
[13] = Septoria tritici, read-out: Concentration at 90% Inhibition St
[14] = mycelial plugs, growth inhibition at 48 hours vs 2% DMSO control, read-out: Concentration at 90% Inhibition Rs
[15] = Diplodia maydis, read-out: Concentration at 90% Inhibition Dm
[16] = read-out: Concentration at 90% Inhibition Bc, Botrtyis cinerea
[17] = read-out: MIC, C. krusei ATCC 6258, Table 3b (additional results), 3 replicates, MIC recorded at 48 h
[18] = read-out: Concentration at 90% Inhibition Fv, Fusarium virguliforme, growth inhibition at 48 hours vs 2% DMSO control
[19] = read-out: MIC, C. albicans ATCC 90028, Table 3b (additional results), 3 replicates, MIC recorded at 48 h
[20] = read-out: Concentration at 90% Inhibition Pc, Phytophthora capsici, growth inhibition at 48 hours vs 2% DMSO control
[21] = read-out: Concentration at 90% Inhibition Cg, Collectotrichum graminicola
[22] = read-out: MIC, C. parapsilosis ATCC 22019, Table 3b (additional results), 3 replicates, MIC recorded at 48 h
[23] = read-out: Concentration at 90% Inhibition St, Septoria tritici
[24] = read-out: Concentration at 90% Inhibition Rs, Rhizoctonia solani, mycelial plugs, growth inhibition at 48 hours vs 2% DMSO control
[25] = read-out: Concentration at 90% Inhibition Dm, Diplodia maydis

Compound	IC90 (Botrtyis cinerea (Bc); [5])	MIC (C. krusei; [6])	IC90 [1, 7]	MIC (C. albicans; [8])	IC90 [2, 9]	IC90 [3, 10]	MIC (C. parapsilosis; [11])	IC90 [4, 12]	IC50 (fungal (fACC2))	IC90 (Septoria tritici (St); [13])	IC90 (Rhizoctonia solani (Rs); [14])	IC90 (Diplodia maydis (Dm); [15])	IC50 (human (hACC2))	IC90 (Botrtyis cinerea (Bc); [16])	MIC (C. krusei; [17])	IC90 [1, 18]	MIC (C. albicans; [19])	IC90 [2, 20]	IC90 [3, 21]	MIC (C. parapsilosis; [22])	further results
O=C(c1c2ccccc2cc2ccccc12)N1CCC(N2CCC[C@@H](C(=O)N3CCOCC3)C2)CC1 [CP-640186]																					IC50 (ACC2): ~60 nM; IC50 (ACC1): ~60 nM
Cc1c(-n2nccn2)sc2c1c(=O)n(C(C)(C)C(=O)NC(C)C)c(=O)n2C[C@H](OCCC#N)c1ccccc1O [Compound I-271]	10 µg/mL (≈ 17.7 µM)	2.01 to 4 µg/mL (≈ 3.55 to 7.07 µM)	2 µg/mL (≈ 3.54 µM)	2.01 to 4 µg/mL (≈ 3.55 to 7.07 µM)	> 50 µg/mL	> 50 µg/mL	2.01 to 4 µg/mL (≈ 3.55 to 7.07 µM)	2 µg/mL (≈ 3.54 µM)	0.3 to 1 nM	> 50 µg/mL	10 µg/mL (≈ 17.7 µM)	> 50 µg/mL	5 to 10 nM								
CC(=O)Oc1ccccc1[C@H](Cn1c(=O)n(C(C)(C)C(=O)NC(C)C)c(=O)c2c(C)c(-n3nccn3)sc21)OCCC#N [Compound I-272]	2 µg/mL (≈ 3.29 µM)	1.01 to 2 µg/mL (≈ 1.66 to 3.29 µM)	0.4 µg/mL (≈ 0.658 µM)	1.01 to 2 µg/mL (≈ 1.66 to 3.29 µM)	> 50 µg/mL	2 µg/mL (≈ 3.29 µM)	1.01 to 2 µg/mL (≈ 1.66 to 3.29 µM)	0.08 µg/mL (≈ 0.132 µM)	0.3 to 1 nM	> 50 µg/mL	2 µg/mL (≈ 3.29 µM)	10 µg/mL (≈ 16.5 µM)	1 to 5 nM								
CCOC(=O)c1ccccc1[C@H](Cn1c(=O)n(C(C)(C)C(=O)NC(C)C)c(=O)c2c(C)c(-n3nccn3)sc21)OCCC#N [Compound I-275]									0.3 to 1 nM				> 40 nM	10 µg/mL (≈ 16.1 µM)	2.01 to 4 µg/mL (≈ 3.23 to 6.43 µM)	2 µg/mL (≈ 3.22 µM)	2.01 to 4 µg/mL (≈ 3.23 to 6.43 µM)	> 50 µg/mL	> 50 µg/mL	2.01 to 4 µg/mL (≈ 3.23 to 6.43 µM)	IC90 [4]: 2 µg/mL (≈ 3.22 µM); IC90 (Septoria tritici (St); [23]): > 50 µg/mL; IC90 (Rhizoctonia solani (Rs); [24]): 10 µg/mL (≈ 16.1 µM); IC90 (Diplodia maydis (Dm); [25]): > 50 µg/mL
CCc1ccc(F)cc1CCn1c(=O)n(C(C)(C)C(=O)NC(C)C)c(=O)c2c(C)c(-n3nccn3)sc21 [Compound I-276]									0.3 to 1 nM				5 to 10 nM	2 µg/mL (≈ 3.8 µM)	1.01 to 2 µg/mL (≈ 1.92 to 3.8 µM)	0.08 µg/mL (≈ 0.152 µM)	2.01 to 4 µg/mL (≈ 3.82 to 7.6 µM)	> 50 µg/mL	2 µg/mL (≈ 3.8 µM)	2.01 to 4 µg/mL (≈ 3.82 to 7.6 µM)	IC90 [4]: 0.08 µg/mL (≈ 0.152 µM); IC90 (Septoria tritici (St); [23]): > 50 µg/mL; IC90 (Rhizoctonia solani (Rs); [24]): 10 µg/mL (≈ 19 µM); IC90 (Diplodia maydis (Dm); [25]): 2 µg/mL (≈ 3.8 µM)
Cc1c(-n2nccn2)sc2c1c(=O)n(C(C)(C)C(=O)NC(C)C)c(=O)n2CCc1cc(F)ccc1OCc1ccccc1 [Compound I-277]									1 to 5 nM				10 to 40 nM	> 50 µg/mL	1.01 to 2 µg/mL (≈ 1.67 to 3.31 µM)	2 µg/mL (≈ 3.31 µM)	1.01 to 2 µg/mL (≈ 1.67 to 3.31 µM)	> 50 µg/mL	> 50 µg/mL	1.01 to 2 µg/mL (≈ 1.67 to 3.31 µM)	IC90 [4]: 2 µg/mL (≈ 3.31 µM); IC90 (Septoria tritici (St); [23]): > 50 µg/mL; IC90 (Rhizoctonia solani (Rs); [24]): > 50 µg/mL; IC90 (Diplodia maydis (Dm); [25]): > 50 µg/mL
Cc1c(-n2nccn2)sc2c1c(=O)n(C(C)(C)C(=O)NC(C)C)c(=O)n2CCc1cc(F)ccc1CCCC#N [Compound I-278]	2 µg/mL (≈ 3.54 µM)	1.01 to 2 µg/mL (≈ 1.79 to 3.54 µM)	0.4 µg/mL (≈ 0.707 µM)	2.01 to 4 µg/mL (≈ 3.55 to 7.07 µM)	> 50 µg/mL	10 µg/mL (≈ 17.7 µM)	2.01 to 4 µg/mL (≈ 3.55 to 7.07 µM)	0.4 µg/mL (≈ 0.707 µM)	1 to 5 nM	> 50 µg/mL	10 µg/mL (≈ 17.7 µM)	2 µg/mL (≈ 3.54 µM)	10 to 40 nM								
Cc1c(-n2nccn2)sc2c1c(=O)n(C(C)(C)C(=O)NC(C)C)c(=O)n2CCc1cc(F)ccc1OC1CCOCC1 [Compound I-279]	2 µg/mL (≈ 3.34 µM)	2.01 to 4 µg/mL (≈ 3.36 to 6.68 µM)	0.08 µg/mL (≈ 0.134 µM)	2.01 to 4 µg/mL (≈ 3.36 to 6.68 µM)	> 50 µg/mL	10 µg/mL (≈ 16.7 µM)	1.01 to 2 µg/mL (≈ 1.69 to 3.34 µM)	0.08 µg/mL (≈ 0.134 µM)	0.3 to 1 nM	> 50 µg/mL	10 µg/mL (≈ 16.7 µM)	> 50 µg/mL	10 to 40 nM								
Cc1c(-n2nccn2)sc2c1c(=O)n(C(C)(C)C(=O)NC(C)C)c(=O)n2CCc1cc(F)ccc1OCCC#N [Compound I-280]									1 to 5 nM				10 to 40 nM	10 µg/mL (≈ 17.6 µM)	1.01 to 2 µg/mL (≈ 1.78 to 3.52 µM)	2 µg/mL (≈ 3.52 µM)	1.01 to 2 µg/mL (≈ 1.78 to 3.52 µM)	> 50 µg/mL	> 50 µg/mL	1.01 to 2 µg/mL (≈ 1.78 to 3.52 µM)	IC90 [4]: 2 µg/mL (≈ 3.52 µM); IC90 (Septoria tritici (St); [23]): > 50 µg/mL; IC90 (Rhizoctonia solani (Rs); [24]): > 50 µg/mL; IC90 (Diplodia maydis (Dm); [25]): > 50 µg/mL
Cc1c(-n2nccn2)sc2c1c(=O)n(C(C)(C)C(=O)NC(C)C)c(=O)n2CCc1cc(F)ccc1OC(C)C [Compound I-281]	2 µg/mL (≈ 3.59 µM)	1.01 to 2 µg/mL (≈ 1.81 to 3.59 µM)	0.08 µg/mL (≈ 0.144 µM)	> 4.01 µg/mL	> 50 µg/mL	10 µg/mL (≈ 18 µM)	2.01 to 4 µg/mL (≈ 3.61 to 7.19 µM)	0.08 µg/mL (≈ 0.144 µM)	0.3 to 1 nM	> 50 µg/mL	10 µg/mL (≈ 18 µM)	2 µg/mL (≈ 3.59 µM)	10 to 40 nM								
